Experimental data as given in patent US7285552B2, “Drugs containing triazaspiro[5.5]undecane derivatives as the active ingredient” (Ono Pharmaceuticals Co., Ltd., priority 2001, dated 2007).

Columns and labels:
Assay type in all cases: cell-based
[1] = system: HIV-1BaL; assay: Inhibiting activity to HIV-1 infection to human PBMC (p24 antigen, EIA), HIV-1BaL
Experimental: (§1) Human PBMC (peripheral blood mononuclear cell) was isolated from HIV-negative healthy persons by a Ficol-Hipaque density-gradient centrifugation and incubated for 3 days in the presence of 10 μg/ml PHA (phytohemagglutinin). PHA-stimulated PBMC was suspended in RPMI 1640 containing 10% serum to give a density of 1×10^5 cells/ml and poured into a 96-well microplate. Furthermore, in the presence of a sole test compound in various concentrations or in the co-presence with other anti-HIV inhibitor (such as AZT (zidovudin) or AMD 3100), various HIV-1 cell lines of 50 TCID50 (such as HIV-1LAI, HIV-1NL4-3, HIV-1BaL, HIV-1JRFL, HIV-189.6, HIV-1 HIV-1ERS104pre, HIV-1JSL, HIV-1MM, HIV-1TM and HIV-1MOKW) were exposed. After being incubated for 7 days, the amount of HIV-1p24 antigen on the supernatant liquid of the incubation was measured by an EIA method using Lumipulse F (Fuji Rebio).
Inhibiting effect to human PBMC infected by HIV-1 HIV-1BaL by the joint use of the compound of Example 2(1) and saquinavir (SQV) which is an anti-HIV inhibitor was investigated. Inhibiting effects of both compounds when the p24 amount where the compounds are not added is defined as 100% are shown in terms of % control.
Inhibiting effect to human PBMC infected by HIV-1 HIV-1BaL by the joint use of the compound of Example 75(54) and saquinavir (SQV) which is an anti-HIV inhibitor […] was investigated. Inhibiting effects of both compounds when the p24 amount where the compounds are not added is defined as 100% are shown in terms of % control.

[2] = system: HIV-189.6; assay: Inhibiting activity to HIV-1 infection to human PBMC (p24 antigen, EIA), HIV-1 89.6
Experimental: as §1
(§2) Inhibiting effect to HIV-1 infection to human PBMC was investigated by the joint use of the compound of Example 2(1) with AMD 3100. The compound of Example 2(1) in various concentrations and AMD 3100 were added either solely or combinably and an assay was carried out. Inhibiting effects of both compounds when the p24 amount where the compounds are not added is defined as 100% are shown in terms of % control.

[3] = system: HIV-1MOKW; assay: Inhibiting activity to HIV-1 infection to human PBMC (p24 antigen, EIA), wild-type HIV-1; conditions: Human immunodeficiency virus 1, read-out: IC50, inhibiting effect to infection to human PBMC
Experimental: as §1
(§3) Inhibiting effect of the compound of Example 2(1) to human PBMC infected by wild-type HIV-1 (HIV-1MOKW) and by multidrug resistant HIV-1 (HIV-1JSL and HIV-1MM) to reverse transcriptase inhibitor and protease inhibitor was investigated.

[4] = system: Mixed Virus of HIV-1BaL and HIV-1NL4-3 (1:1); assay: Inhibiting activity to HIV-1 infection to human PBMC (p24 antigen, EIA), mixed virus; conditions: HIV-1BaL + HIV-1NL4-3 (1:1)
Experimental: as §1, §2

[5] = system: HIV-1MM; assay: Inhibiting activity to HIV-1 infection to human PBMC (p24 antigen, EIA), multidrug resistant HIV-1; conditions: Human immunodeficiency virus 1, PBMC, read-out: IC50, inhibiting effect to infection to human PBMC
Experimental: as §1, §3

[6] = system: HIV-1JSL; assay: as above; conditions: Human immunodeficiency virus 1, PBMC, read-out: IC50, inhibiting effect to infection to human PBMC
Experimental: as §1, §3

[7] = Example 2(1) 0.1 μM + AMD 3100 0.01 μM
[8] = Example 2(1) 0.1 μM + AMD 3100 0.1 μM
[9] = Example 2(1) 1 μM + AMD 3100 0.01 μM
[10] = Example 2(1) 1 μM + AMD 3100 0.1 μM

With `CCCCN1C(=O)[C@@H]([C@H](O)C2CCCCC2)NC(=O)C12CCN(Cc1ccc(Oc3ccc(C(=O)O)cc3)cc1)CC2.Cl` [Example 75(54), (3R)-1-butyl-2,5-dioxo-3-((1R)-1-hydroxy-1-cyclohexylmethyl)-9-(4-(4-carboxyphenyloxy)phenylmethyl)-1,4,9-triazaspiro[5.5]undecane.hydrochloride] the “p24 amount, % control (no compound = 100%)” value ([1]; Example 75(54) 0.2 nM + Saquinavir 1 nM) was 66.0 % control, the “p24 amount, % control (no compound = 100%)” value ([1]; Example 75(54) 0.2 nM + Saquinavir 5 nM) was 52.0 % control and the “p24 amount, % control (no compound = 100%)” value ([1]; Example 75(54) 0.2 nM + Saquinavir 25 nM) was 5.7 % control. For the same compound, the “p24 amount, % control (no compound = 100%)” value ([1]; Example 75(54) 0.2 nM alone) was 64.2 % control, the “p24 amount, % control (no compound = 100%)” value ([1]; Example 75(54) 1 nM + Saquinavir 1 nM) was 32.8 % control and the “p24 amount, % control (no compound = 100%)” value ([1]; Example 75(54) 1 nM + Saquinavir 5 nM) was 29.3 % control. The “p24 amount, % control (no compound = 100%)” value ([1]; Example 75(54) 1 nM + Saquinavir 25 nM) was 3.8 % control, the “p24 amount, % control (no compound = 100%)” value ([1]; Example 75(54) 1 nM alone) was 34.2 % control and the “p24 amount, % control (no compound = 100%)” value ([1]; Example 75(54) 5 nM + Saquinavir 1 nM) was 10.8 % control. For the same compound, the “p24 amount, % control (no compound = 100%)” value ([1]; Example 75(54) 5 nM + Saquinavir 5 nM) was 6.1 % control, the “p24 amount, % control (no compound = 100%)” value ([1]; Example 75(54) 5 nM + Saquinavir 25 nM) was 1.6 % control and the “p24 amount, % control (no compound = 100%)” value ([1]; Example 75(54) 5 nM alone) was 10.6 % control.
`CCCCN1C(=O)C(CC2CCCCC2)NC(=O)C12CCN(Cc1ccc3c(c1)OCCO3)CC2.Cl` (stereo not shown) [Example 2(1), 9-(1,4-benzodioxan-6-ylmethyl)-1-butyl-3-cyclohexylmethyl-2,5-dioxo-1,4,9-triazaspiro[5.5]undecane.hydrochloride] was tested, and the “p24 amount, % control (no compound = 100%)” value [2, 7] was 38.0 % control, the “p24 amount, % control (no compound = 100%)” value [2, 8] was 6.0 % control and the “p24 amount, % control (no compound = 100%)” value ([2]; Example 2(1) 0.1 μM alone) was 72.0 % control. For the same compound, the “p24 amount, % control (no compound = 100%)” value [2, 9] was 15.1 % control, the “p24 amount, % control (no compound = 100%)” value [2, 10] was 0.7 % control and the “p24 amount, % control (no compound = 100%)” value ([2]; Example 2(1) 1 μM alone) was 64.5 % control. For the same compound, the IC50 [3] was 40 ± 29 nM, the “p24 amount, % control (no compound = 100%)” value [4, 7] was 32.1 % control and the “p24 amount, % control (no compound = 100%)” value [4, 8] was 17.8 % control. The “p24 amount, % control (no compound = 100%)” value ([4]; Example 2(1) 0.1 μM alone) was 63.8 % control, the “p24 amount, % control (no compound = 100%)” value [4, 9] was 10.5 % control and the “p24 amount, % control (no compound = 100%)” value [4, 10] was 1.5 % control. For the same compound, the “p24 amount, % control (no compound = 100%)” value ([4]; Example 2(1) 1 μM alone) was 52.4 % control, the “p24 amount, % control (no compound = 100%)” value ([1]; Example 2(1) 0.1 μM + Saquinavir 0.01 μM) was 44.3 % control and the “p24 amount, % control (no compound = 100%)” value ([1]; Example 2(1) 0.1 μM alone) was 75.4 % control. It also gave an IC50 [5] of 48 ± 62 nM and an IC50 [6] of 64 ± 11 nM.
For `CC(C)(C)NC(=O)[C@@H]1C[C@@H]2CCCC[C@@H]2CN1C[C@@H](O)[C@H](Cc1ccccc1)NC(=O)[C@H](CC(N)=O)NC(=O)c1ccc2ccccc2n1` [Saquinavir, saquinavir, reference compound], the “p24 amount, % control (no compound = 100%)” value ([1]; Saquinavir 1 nM alone) was 78.1 % control, the “p24 amount, % control (no compound = 100%)” value ([1]; Saquinavir 5 nM alone) was 67.7 % control and the “p24 amount, % control (no compound = 100%)” value ([1]; Saquinavir 0.01 μM alone) was 53.8 % control. The “p24 amount, % control (no compound = 100%)” value ([1]; Saquinavir 25 nM alone) was 5.9 % control.
For `c1cc(CN2CCCNCCNCCCNCC2)ccc1CN1CCCNCCNCCCNCC1` [AMD 3100, reference compound], the “p24 amount, % control (no compound = 100%)” value ([2]; AMD 3100 0.01 μM alone) was 58.3 % control, the “p24 amount, % control (no compound = 100%)” value ([2]; AMD 3100 0.1 μM alone) was 6.9 % control and the “p24 amount, % control (no compound = 100%)” value ([4]; AMD 3100 0.01 μM alone) was 59.1 % control. For the same compound, the “p24 amount, % control (no compound = 100%)” value ([4]; AMD 3100 0.1 μM alone) was 44.2 % control.
